# Measured values published in publication PMC10464554 (Journal of Enzyme Inhibition and Medicinal Chemistry, 2023).
# Tests used:
# Vero E6 cells = details: 200–0.1 µM, 24 h, MTT
# SARS-CoV-2 BA.5 strain = type: cell-based
# [1] = molecular target: NT650-Nps5 (recombinant SARS-CoV-2 main protease Nsp5) (Severe acute respiratory syndrome coronavirus 2, UniProt P0DTD1); test: biochemical; type: binding
# Nsp5 [2] = details: cited from earlier work
# SARS-CoV-2 [3] = details: replication of SARS-CoV-2 in Vero E6 cells; cited from earlier work
# SARS-CoV-2 [4] = details: Vero E6 cells, 72 h readout; cited from earlier work
# Nsp5 [5] = details: irreversible inhibitor of Nsp5; cited from earlier work
smiles,measurement,setting,value
"CC(C)(C)[C@H](NC(=O)C(F)(F)F)C(=O)N1C[C@H]2[C@@H]([C@H]1C(=O)N[C@H](C#N)C[C@@H]1CCNC1=O)C2(C)C [Nirmatrelvir (1), Nirmatrelvir]",Cell viability (cytotoxic effect),Vero E6 cells,well-tolerated by Vero E6 cells at all the concentrations tested
same,Viral replication (supernatant viral titre),SARS-CoV-2 BA.5 strain,significantly reduce the number of infective particles
"O=c1oc2c(O)c(O)cc3c(=O)oc4c(O)c(O)cc1c4c23 [Ellagic acid (7), ellagic acid]",Kd,[1],970 ± 140 nM
same,Binding Efficiency Index (BEI),[1]; BEI = pKd/MW (kDa),19.9
same,Dissociation constant (SPR),Nsp5 [2],low micromolar
"O=c1c(O)c(-c2cc(O)c(O)c(O)c2)oc2cc(O)cc(O)c12 [Myricetin (2), myricetin]",EC50,SARS-CoV-2 [3],8 µM
same,Antiviral SARS-CoV-2 activity (CPE inhibition),SARS-CoV-2 [4],devoid of antiviral SARS-CoV-2 activity
same,IC50,Nsp5 [5],630 ± 10 nM
